Reference: ChEMBL document CHEMBL3507680, “University of Dundee, Gates Library screen for HepG2 cell viability”

assay: Human HepG2 cell viability assay in 384 well format; format: toxicity, cell-based; parameters: dose 125 nL, time 70.5 hour; concentration not given beside the values; details: HepG2 cells, read-out: Inhibition

Row | SMILES | cytotoxicity at 70.5 h
1 | CC(C)(C)C(=O)N1CCCC1c1nc(O)cc(-c2ccccn2)n1 (stereo not drawn) | -8.73%
2 | O=C(CC1CCCC1)N1CCCC1c1nc(O)cc(-c2ccccn2)n1 (stereo not drawn) | -1.16%
3 | Cc1oc(C(=O)Nc2ccccc2F)cc1S(N)(=O)=O | -10.9%
4 | CCN(CC(C)C#N)C(=O)CNc1ccc(F)c(C)c1 (stereo not drawn) | 0.826%
5 | Cc1cccc(C)c1NC(=O)c1cc(S(N)(=O)=O)c(C)o1 | 20.8%
6 | CCS(=O)(=O)CC(=O)Nc1cc(-c2cccc(F)c2F)n[nH]1 | -9.86%
7 | O=c1n(CCNc2cccc3ccccc23)nc2ccccn12 | 4.9%
8 | O=C(c1ccoc1)N1CCC(O)(C(F)(F)F)CC1 | -12.1%
9 | CCOCC(=O)N(C)Cc1nc(C(F)(F)F)cs1 | 20.5%
10 | CCN(CC(C)C#N)C(=O)CNc1ccc(C(N)=O)c(C)c1 (stereo not drawn) | -1.05%
11 | COc1ccccc1OCCNS(=O)(=O)N1CCOCC1 | -11.3%
12 | CC(C)c1nn(C)c(Cl)c1CNCCn1cccn1 | 8.25%
13 | CCOc1nnc(CN2CCN(CCOC)CC2)s1 | 16.4%
14 | COCCN1CCN(CC2CCCCO2)CC1 (stereo not drawn) | 38.7%
15 | COc1ccc(C(C)=O)cc1CN1CCn2cccc2C1C (stereo not drawn) | -6.89%
16 | CC(=O)c1cccc(NC(=O)N(CC(F)F)C2CC2)c1 | 19.6%
17 | CCN(CC)S(=O)(=O)c1ccc(CNC(=O)N2CCCCCC2)cc1 | -7.35%
18 | Cc1cccc(C)c1OCCCN1CCN(CC2CCCO2)CC1 (stereo not drawn) | 18.9%
19 | COc1ccc(C2(C(=O)NC3CCc4nccn4C3)CCCC2)cc1 (stereo not drawn) | -3%
20 | CS(=O)(=O)C1(C(=O)NC2CCc3nccn3C2)CCCC1 (stereo not drawn) | -4.12%
21 | Cc1cc(NC(=O)NCc2nccn2C)ccc1OC(C)C | -6.18%
22 | Cc1ccc(Br)cc1S(=O)(=O)NCCc1nnc[nH]1 | 11.5%

Row | SMILES | cytotoxicity at 70.5 h
23 | COc1cc(C(=O)NS(=O)(=O)c2cc(Cl)sc2Cl)ccc1OC(F)F | -5.6%
24 | COc1ccc(C(=O)NS(=O)(=O)c2cc(Cl)sc2Cl)cc1OC(F)F | -3.93%
25 | COCCCOc1ccc(C(=O)N(C)CCC(C)C)cn1 | 20.8%
26 | Cc1cnn(CCNCc2c(C)nn(C)c2Cl)c1 | -4.35%
27 | COC(=O)CNC(=O)CCc1cc(Cl)cs1 | 6.93%
28 | COC(=O)CNC(=O)CCc1cc(Br)cs1 | -3.56%
29 | CCc1nc(CN(C)C(=O)c2ccc(OCCCOC)nc2)cs1 | -7.45%
30 | CN(Cc1cnn(C)c1)C(=O)C(c1ccccc1)N1CCSCC1 (stereo not drawn) | -9.84%
31 | COc1ccc(C(C)NCCC(N)=O)cc1F (stereo not drawn) | 1.06%
32 | O=C(NCc1nnc2n1CCC2)c1ccc(Br)s1 | -5.66%
33 | COC(=O)c1ccoc1CN(C)CC(=O)NC1CC1 | -5.08%
34 | COC(=O)c1ccoc1CN(C)CC(=O)NC1CCS(=O)(=O)C1 (stereo not drawn) | 3.53%
35 | CNC(=O)CN(C)C(=O)c1ccc(-c2nc(C)cs2)cc1 | -5.78%
36 | CC(NS(N)(=O)=O)c1ccc(OCc2ccc(F)cc2)cc1 (stereo not drawn) | -0.493%
37 | COc1ccc(N2CCC(NC(=O)c3sccc3C)CC2)cc1 | 18.3%
38 | CN1CCC(NC(=O)c2cc(Br)cc(Cl)c2O)C1=O (stereo not drawn) | -1.22%
39 | CC(C)OCCN1CCC(Nc2ncc(Br)cn2)CC1 | -7.14%
40 | CNC(=O)c1cc(NC(=O)Nc2cnn(CC(C)C)c2)ccc1F | -4.7%
41 | Cc1cccc(COc2ccc(C(C)NC(=O)CNC(N)=O)cc2)c1 (stereo not drawn) | -0.269%
42 | O=C(C1CCCOC1)N1CCN(CC(F)(F)F)c2ccccc21 (stereo not drawn) | -1.7%
43 | O=C(C1COCCO1)N1CCN(CC(F)(F)F)c2ccccc21 (stereo not drawn) | -1.12%
44 | CN1CCC(NC(=O)c2cc(F)cc(Cl)c2O)C1=O (stereo not drawn) | -2.94%

Row | SMILES | cytotoxicity at 70.5 h
45 | COC(=O)CC1CCCCN1CC(=O)NCCc1ccc(F)cc1 (stereo not drawn) | 1.06%
46 | COC(=O)CC1CCCCN1CC(=O)Nc1ccc(F)cc1Cl (stereo not drawn) | 21.6%
47 | COC(=O)c1ccoc1CN(C1CC1)C1CCS(=O)(=O)C1 (stereo not drawn) | -0.821%
48 | COC(=O)CC1CCCCN1CC(=O)Nc1cc(F)ccc1F (stereo not drawn) | -4.9%
49 | CCCS(=O)(=O)NCc1ncc(C)c(OC)c1C | 9.44%
50 | CC1CN(c2ncnc3sccc23)CCN1c1nccs1 (stereo not drawn) | -0.696%
51 | CC1CCN(C(=O)CCN2Cc3ccccc3C[C@H]2C(N)=O)C1 (stereo partly drawn) | -6.72%
52 | COC(=O)C1CN(Cc2ccn(-c3ccc(F)cc3)n2)CCO1 (stereo not drawn) | 5.92%
53 | CC(C)(C)c1noc(CCC(=O)N2CCNC(=O)C2)n1 | 7.96%
54 | COc1ccc2c(c1)CCCC2CC(=O)O (stereo not drawn) | -19.3%
55 | Cc1cc(C(=O)N2CCNC(=O)C2)c(C)n1CC(F)(F)F | 26.8%
56 | Cc1cc(CNc2cccc(C(=O)N(C)c3ccccc3)c2)no1 | -0.804%
57 | O=C(Cc1cccs1)NCC1(O)CCSCC1 | -3.88%
58 | CS(=O)(=O)CCCC(=O)Nc1cc(Cl)c(Cl)cn1 | 0.966%
59 | CS(=O)(=O)CCC(=O)Nc1cc(Cl)c(Cl)cn1 | 26.6%
60 | COCCCC(=O)Nc1cc(Cl)c(Cl)cn1 | 24.5%
61 | O=C(OC1CCC1)c1ncccc1OCC(F)(F)F | 15.8%
62 | CS(=O)(=O)NC(=O)c1cnc2c(cnn2C2CCCC2)c1 | -4.29%
63 | Cc1ccnc(C(NC(=O)c2oc(C)nc2C)C2CC2)n1 (stereo not drawn) | -3.47%
64 | CN(C)CCCNC(=O)c1ccnc(OCc2ccccc2)c1 | -1.38%
65 | CCn1cc(S(=O)(=O)NCC(OC)c2cccc(Cl)c2)cn1 (stereo not drawn) | -6.64%
66 | O=C(OC1CCC1)c1ncccc1C(F)(F)F | -3.86%

Row | SMILES | cytotoxicity at 70.5 h
67 | Cc1csc(CCNC(=O)C2CCOC2)n1 (stereo not drawn) | -2.45%
68 | Cc1cnn(CCNCC(O)COc2cccc(C(F)(F)F)c2)c1 (stereo not drawn) | 0.0235%
69 | COc1ccc(CCNC(=O)C(C)Nc2cc(C)ccc2C)cc1 (stereo not drawn) | -8.81%
70 | O=C(c1sccc1C1CC1)N1CCN(c2nccs2)CC1 | 6.38%
71 | CC(NC(=O)CNS(C)(=O)=O)c1ccccc1Oc1ccccc1 (stereo not drawn) | -7.15%
72 | CCS(=O)(=O)CC(=O)NC(C)c1ccccc1Oc1ccccc1 (stereo not drawn) | 2.99%
73 | CC(C)(C)c1cnc(CN2CCC(CN3CCOCC3)CC2)o1 | 22.6%
74 | CC(C)(O)CN1CCN(C(=O)c2cccn2Cc2ccccc2)CC1 | -6.76%
75 | CC(NC(=O)CSCC(N)=O)c1ccccc1Oc1ccccc1 (stereo not drawn) | 16.5%
76 | CN(C)c1ccccc1CN1CCC(N2CCCC2=O)CC1 | 17.8%
77 | Cc1cc(F)cc2c(N3CCS(=O)(=O)CC3)c(C#N)cnc12 | 0.465%
78 | COc1cc2c(cc1CNC(=O)Cc1cc(C)on1)OC(C)C2 (stereo not drawn) | -8.66%
79 | CC(=O)Nc1ccc(CNc2cccc(OCCF)c2)cc1 | -5.76%
80 | COCc1nc(CNc2cc(C)on2)cs1 | -3.59%
81 | Cc1cc(NCc2csc(C)n2)no1 | -4.29%
82 | CC(C)OCCC(=O)N1CCN(CC(O)c2ccccc2)CC1 (stereo not drawn) | -1.62%
83 | O=C(c1ccc(-n2cccc2)c(F)c1)N1CCCN2CCCC2C1 (stereo not drawn) | 8.53%
84 | CCOc1cncc(N2CCOCC2)n1 | -7.42%
85 | CCc1nc(CN2CC(C(=O)OC)O[C@H](C)C2)cs1 (stereo partly drawn) | -8.81%
86 | CCc1nc2c(s1)C(N(C)C(=O)c1cc[nH]n1)CCC2 (stereo not drawn) | -10.2%
87 | CC(O)CN1CCN(C(=O)c2cccn2Cc2cccnc2)CC1 (stereo not drawn) | -11.4%
88 | Cc1ncsc1C(=O)NCCNC(=O)OC(C)(C)C | -2.69%
